Assay results taken from publication PMC9482650, “Quantitative fragmentomics allow affinity mapping of interactomes” (Nature Communications, 2022).
Residue numbers refer to the chain shown, from its start. Where two headings read alike, the source gives them in different places. Ends that are not written are not given here.

Legend:
Type in all cases: binding
SCRIB_3 PDZ = target: T1, SCRIB_3 PDZ (Homo sapiens, UniProt Q14160); assay: Holdup assay
T1 sequence (Q14160 1004-1093 limits assumed): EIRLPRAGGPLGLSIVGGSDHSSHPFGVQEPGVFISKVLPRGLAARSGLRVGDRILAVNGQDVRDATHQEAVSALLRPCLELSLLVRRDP

ARHGEF11 PDZ = target: T2, ARHGEF11 PDZ (Homo sapiens, UniProt O15085); assay: Holdup assay
T2 sequence (O15085 47-126 limits assumed): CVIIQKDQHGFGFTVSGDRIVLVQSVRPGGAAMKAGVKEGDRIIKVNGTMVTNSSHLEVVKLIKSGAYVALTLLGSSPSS

MAGI1_2 PDZ = MAGI1_2 PDZ (Homo sapiens, UniProt Q96QZ7); assay: biochemical
MAGI2_2 PDZ = MAGI2_2 PDZ (Homo sapiens, UniProt Q86UL8); assay: Holdup assay
DLG1_3 PDZ = DLG1_3 PDZ (Homo sapiens, UniProt Q12959); assay: Holdup assay
MAGI2_4 PDZ = MAGI2_4 PDZ (Homo sapiens, UniProt Q86UL8); assay: Holdup assay
LAP2 PDZ = LAP2 PDZ (Homo sapiens, UniProt Q96RT1); assay: Holdup assay
PDZD2_2 PDZ = target: T3, PDZD2_2 PDZ (Homo sapiens, UniProt O15018); assay: Holdup assay
T3 sequence (O15018 334-419 limits assumed): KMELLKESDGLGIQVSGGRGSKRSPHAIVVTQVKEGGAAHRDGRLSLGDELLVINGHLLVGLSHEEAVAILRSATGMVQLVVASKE

SCRIB_1 PDZ = SCRIB_1 PDZ (Homo sapiens, UniProt Q14160); assay: Holdup assay
LIN7C PDZ = target: T4, LIN7C PDZ (Homo sapiens, UniProt Q9NUP9); assay: Holdup assay
T4 sequence (Q9NUP9 93-175 limits assumed): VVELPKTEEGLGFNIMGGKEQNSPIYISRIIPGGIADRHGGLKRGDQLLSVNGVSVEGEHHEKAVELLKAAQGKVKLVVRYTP

SYNJ2BP PDZ = target: T5, SYNJ2BP PDZ (Homo sapiens, UniProt P57105); assay: Holdup assay
T5 sequence (P57105 13-100 limits assumed): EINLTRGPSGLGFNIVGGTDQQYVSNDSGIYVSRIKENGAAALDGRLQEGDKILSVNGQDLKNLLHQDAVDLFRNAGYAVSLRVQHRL

PDZRN3_1 PDZ = target: T6, PDZRN3_1 PDZ (Homo sapiens, UniProt Q9UPQ7); assay: Holdup assay
T6 sequence (Q9UPQ7 249-339 limits assumed): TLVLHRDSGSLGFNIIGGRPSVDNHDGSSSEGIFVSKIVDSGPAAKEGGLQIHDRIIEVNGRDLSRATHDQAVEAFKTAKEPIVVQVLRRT

DLG3_3 PDZ = target: T7, DLG3_3 PDZ (Homo sapiens, UniProt Q92796); assay: Holdup assay
T7 sequence (Q92796 379-465 limits assumed): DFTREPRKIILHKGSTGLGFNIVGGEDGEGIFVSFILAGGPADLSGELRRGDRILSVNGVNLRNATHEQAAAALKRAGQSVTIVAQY

DLG4_1 PDZ = DLG4_1 PDZ (Homo sapiens, UniProt P78352); assay: Holdup assay
MAGI2_5 PDZ = MAGI2_5 PDZ (Homo sapiens, UniProt Q86UL8); assay: Holdup assay
SCRIB2 PDZ = target: T8, SCRIB2 PDZ (Homo sapiens, UniProt Q14160); assay: Holdup assay
T8 sequence (Q14160 862-950 limits assumed): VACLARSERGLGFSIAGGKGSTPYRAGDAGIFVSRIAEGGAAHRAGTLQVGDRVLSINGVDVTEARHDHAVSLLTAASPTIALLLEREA

LIN7B PDZ = target: T9, LIN7B PDZ (Homo sapiens, UniProt Q9HAP6); assay: Holdup assay
T9 sequence (Q9HAP6 93-175 limits assumed): T4 sequence (Q9NUP9 93-175 limits assumed) with E8D, I30V, I35V, H60Q, K74S

SNTB1 PDZ = target: T10, SNTB1 PDZ (Homo sapiens, UniProt Q13884); assay: Holdup assay
T10 sequence (Q13884 112-195 limits assumed): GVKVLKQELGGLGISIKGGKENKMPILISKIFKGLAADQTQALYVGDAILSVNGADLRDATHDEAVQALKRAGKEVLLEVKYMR

PTPN3 PDZ = target: T11, PTPN3 PDZ (Homo sapiens, UniProt P26045); assay: Holdup assay
T11 sequence (P26045 510-582 limits assumed): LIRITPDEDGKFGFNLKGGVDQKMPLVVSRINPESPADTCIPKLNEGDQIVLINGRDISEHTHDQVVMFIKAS

TX1BP3 PDZ = target: T12, TX1BP3 PDZ (Homo sapiens, UniProt O14907); assay: Holdup assay
T12 sequence (O14907 15-112 limits assumed): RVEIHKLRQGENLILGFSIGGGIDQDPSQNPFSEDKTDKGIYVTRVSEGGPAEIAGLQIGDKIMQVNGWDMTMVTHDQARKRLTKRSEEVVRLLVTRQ

SNTA1 PDZ = target: T13, SNTA1 PDZ (Homo sapiens, UniProt Q13424); assay: Holdup assay
T13 sequence (Q13424 87-170 limits assumed): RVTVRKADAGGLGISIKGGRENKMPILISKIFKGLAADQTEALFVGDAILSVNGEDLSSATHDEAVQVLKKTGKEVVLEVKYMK

SNTG1 PDZ = target: T14, SNTG1 PDZ (Homo sapiens, UniProt Q9NSN8); assay: Holdup assay
T14 sequence (Q9NSN8 57-140 limits assumed): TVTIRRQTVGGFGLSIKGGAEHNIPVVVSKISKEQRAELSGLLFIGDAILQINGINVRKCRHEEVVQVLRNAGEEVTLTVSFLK

DLG2_2 PDZ = DLG2_2 PDZ (Homo sapiens, UniProt Q15700); assay: Holdup assay
ARHGEF12 PDZ = target: T15, ARHGEF12 PDZ (Homo sapiens, UniProt Q9NZN5); assay: Holdup assay
T15 sequence (Q9NZN5 72-151 limits assumed): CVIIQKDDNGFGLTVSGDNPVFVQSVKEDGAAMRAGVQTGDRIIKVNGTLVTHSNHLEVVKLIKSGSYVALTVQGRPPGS

SNX27 PDZ = SNX27 PDZ (Homo sapiens, UniProt Q96L92); assay: Holdup assay; details: composite holdup affinity; 0.00=below quantification threshold; read-out: COMP pKd (converted)
[1] = composite holdup affinity, 0.00=below quantification threshold, read-out: COMP pKd (converted)

Chain of DLG1_3 PDZ (Q12959 466-546 limits assumed): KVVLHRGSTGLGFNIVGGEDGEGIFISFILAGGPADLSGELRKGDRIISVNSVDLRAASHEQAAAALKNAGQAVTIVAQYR
Chain of SCRIB_1 PDZ (Q14160 728-815 limits assumed): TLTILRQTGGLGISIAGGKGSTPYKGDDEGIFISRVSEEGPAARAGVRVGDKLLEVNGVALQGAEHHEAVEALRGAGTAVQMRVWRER
Chain of MAGI2_4 PDZ (Q86UL8 778-860 limits assumed): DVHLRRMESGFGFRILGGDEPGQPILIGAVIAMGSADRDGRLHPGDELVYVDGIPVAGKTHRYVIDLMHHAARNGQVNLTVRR
Chain of DLG2_2 PDZ (Q15700 193-279 limits assumed): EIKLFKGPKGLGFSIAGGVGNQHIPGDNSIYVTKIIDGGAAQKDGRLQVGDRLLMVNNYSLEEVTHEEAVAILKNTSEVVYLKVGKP
Chain of LAP2 PDZ (Q96RT1 1321-1410 limits assumed): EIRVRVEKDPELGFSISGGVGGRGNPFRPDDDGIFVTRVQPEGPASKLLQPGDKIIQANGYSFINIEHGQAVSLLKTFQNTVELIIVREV
Chain of MAGI2_5 PDZ (Q86UL8 920-1010 limits assumed): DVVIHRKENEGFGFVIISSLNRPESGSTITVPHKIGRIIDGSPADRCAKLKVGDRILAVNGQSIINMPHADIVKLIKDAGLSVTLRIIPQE
Chain of DLG4_1 PDZ (P78352 65-151): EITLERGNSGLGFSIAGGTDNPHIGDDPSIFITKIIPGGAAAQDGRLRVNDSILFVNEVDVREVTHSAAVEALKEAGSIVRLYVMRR
Chain of MAGI2_2 PDZ (Q86UL8 426-510 limits assumed): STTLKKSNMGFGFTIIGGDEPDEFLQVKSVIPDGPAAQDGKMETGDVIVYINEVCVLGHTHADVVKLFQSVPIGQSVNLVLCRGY
Chain of MAGI1_2 PDZ (Q96QZ7 472-554 limits assumed): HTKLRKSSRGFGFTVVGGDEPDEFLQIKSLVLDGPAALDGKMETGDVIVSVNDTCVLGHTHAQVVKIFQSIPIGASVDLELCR

In the case of SKPTRRETEV [HPV35-E6], the Kd (SCRIB_3 PDZ; [1]) is reported as 12.9 µM, the Kd (ARHGEF11 PDZ; [1]) is reported as 77.6 µM and the Kd (MAGI1_2 PDZ; [1]) is reported as 7.41 µM. It also gave a Kd (MAGI2_2 PDZ; [1]) of 11.7 µM, a Kd (DLG1_3 PDZ; [1]) of 17 µM and a Kd (MAGI2_4 PDZ; [1]) of 45.7 µM. It also gave a Kd (LAP2 PDZ; [1]) of 204 µM, a Kd (PDZD2_2 PDZ; [1]) of 166 µM and a Kd (SCRIB_1 PDZ; [1]) of 27.5 µM. For the same molecule, the Kd (LIN7C PDZ; [1]) was 174 µM, the Kd (SYNJ2BP PDZ; [1]) was 2.04 µM and the Kd (PDZRN3_1 PDZ; [1]) was 12.9 µM. It also gave a Kd (DLG3_3 PDZ; [1]) of 6.61 µM, a Kd (DLG4_1 PDZ; [1]) of 8.13 µM and a Kd (MAGI2_5 PDZ; [1]) of 66.1 µM. It also gave a Kd (SCRIB2 PDZ; [1]) of 20 µM, a Kd (LIN7B PDZ; [1]) of 324 µM and a Kd (SNTB1 PDZ; [1]) of 20.9 µM. It also gave a Kd (PTPN3 PDZ; [1]) of 11.7 µM, a Kd (TX1BP3 PDZ; [1]) of 11.7 µM and a Kd (SNTA1 PDZ; [1]) of 14.1 µM. It also gave a Kd (SNTG1 PDZ; [1]) of 49 µM, a Kd (DLG2_2 PDZ; [1]) of 5.37 µM and a Kd (ARHGEF12 PDZ; [1]) of 87.1 µM. The Kd (SNX27 PDZ) was 21.9 µM.

Work on `CC(C)C[C@H](NC(=O)[C@@H](N)CCCNC(=N)N)C(=O)N[C@@H](CCC(N)=O)C(=O)N[C@@H](CCCNC(=N)N)C(=O)N[C@@H](CCCNC(=N)N)C(=O)N[C@@H](CCCNC(=N)N)C(=O)N[C@@H](CCC(=O)O)C(=O)N[C@H](C(=O)N[C@@H](CCC(N)=O)C(=O)N[C@H](C(=O)O)C(C)C)[C@@H](C)O` [HPV18-E6] yielded a Kd (SCRIB_3 PDZ) of 14.5 µM, a Kd (ARHGEF11 PDZ) of 219 µM and a Kd (MAGI1_2 PDZ) of 1.07 µM. For the same molecule, the Kd (MAGI2_2 PDZ) was 6.92 µM, the Kd (DLG1_3 PDZ) was 9.55 µM and the Kd (MAGI2_4 PDZ) was 52.5 µM. For the same molecule, the Kd (LAP2 PDZ) was 245 µM, the Kd (PDZD2_2 PDZ) was 437 µM and the Kd (SCRIB_1 PDZ) was 55 µM. The Kd (LIN7C PDZ) was 67.6 µM, the Kd (SYNJ2BP PDZ) was 4.47 µM and the Kd (PDZRN3_1 PDZ) was 15.1 µM. It also gave a Kd (DLG3_3 PDZ) of 3.63 µM, a Kd (DLG4_1 PDZ) of 7.76 µM and a Kd (MAGI2_5 PDZ) of 166 µM. For the same molecule, the Kd (SCRIB2 PDZ) was 36.3 µM, the Kd (LIN7B PDZ) was 263 µM and the Kd (SNTB1 PDZ) was 5.89 µM. It also gave a Kd (PTPN3 PDZ) of 32.4 µM, a Kd (TX1BP3 PDZ) of 21.9 µM and a Kd (SNTA1 PDZ) of 20 µM. For the same molecule, the Kd (SNTG1 PDZ) was 117 µM, the Kd (DLG2_2 PDZ) was 6.46 µM and the Kd (ARHGEF12 PDZ) was 123 µM. For the same molecule, the Kd (SNX27 PDZ) was 28.2 µM.

SRRPRTETQV [HPV31-E6] showed a Kd (SCRIB_3 PDZ; [1]) of 27.5 µM, a Kd (ARHGEF11 PDZ; [1]) of 263 µM and a Kd (MAGI1_2 PDZ; [1]) of 2.88 µM. For the same molecule, the Kd (MAGI2_2 PDZ; [1]) was 0.417 µM, the Kd (DLG1_3 PDZ; [1]) was 25.1 µM and the Kd (MAGI2_4 PDZ; [1]) was 33.1 µM. The Kd (LAP2 PDZ; [1]) was 126 µM, the Kd (PDZD2_2 PDZ; [1]) was 200 µM and the Kd (SCRIB_1 PDZ; [1]) was 25.1 µM. For the same molecule, the Kd (LIN7C PDZ; [1]) was 117 µM, the Kd (SYNJ2BP PDZ; [1]) was 3.89 µM and the Kd (PDZRN3_1 PDZ; [1]) was 81.3 µM. The Kd (DLG3_3 PDZ; [1]) was 7.94 µM, the Kd (DLG4_1 PDZ; [1]) was 9.55 µM and the Kd (MAGI2_5 PDZ; [1]) was 129 µM. The Kd (SCRIB2 PDZ; [1]) was 41.7 µM, the Kd (LIN7B PDZ; [1]) was 209 µM and the Kd (SNTB1 PDZ; [1]) was 70.8 µM. The Kd (PTPN3 PDZ; [1]) was 21.9 µM, the Kd (TX1BP3 PDZ; [1]) was 24.5 µM and the Kd (SNTA1 PDZ; [1]) was 51.3 µM. It also gave a Kd (SNTG1 PDZ; [1]) of 58.9 µM, a Kd (DLG2_2 PDZ; [1]) of 4.27 µM and a Kd (ARHGEF12 PDZ; [1]) of 138 µM. The Kd (SNX27 PDZ) was 22.9 µM.
